Measured values from patent publication US20260216134A1, “CHARGED PI-CONJUGATED MOLECULES FOR THE TREATMENT OF MICROBIAL INFECTIONS” (priority 2023, published 2026).
Entries after “also recorded” stand apart in the source; their conditions may differ.

Tests used:
MRSA USA300 = experiment: Therapeutic index calculation (IC50 of mammalian cell lines / MIC); details: ratio of average IC50 for A549 and HEK293 to MIC in MRSA USA300
Experimental: The biocompatibility of charged pi-conjugated compounds with mammalian cell lines was evaluated by studying the effects of different charged pi-conjugated compound concentrations on the viability of two mammalian cell lines: A549 (epithelial-like lung cells) and HEK293 (epithelial-like kidney cells). […] Dose-response curves were used to determine IC50 values, that is, the concentration of charged pi-conjugated compound needed to inhibit cell viability by 50%. […] The MIC of MRSA USA300 was used to calculate the therapeutic index. MRSA USA300 is a major contributor to community-associated MRSA infections, including skin and soft tissue infections, bacteraemia, endocarditis, bone and joint infections and nosocomial infections. […]
The biocompatibility of charged pi-conjugated compounds with mammalian cell lines was assessed by determining their impact on the mitochondrial activity of human alveolar basal epithelial adenocarcinoma cells (A549) and human embryonic kidney cells (HEK293T) cells, using the Presto Blue assay according to the manufacturer's protocol. […] After 8 h, Presto Blue cell viability reagent (Thermo Fisher Scientific, Waltham, MA, USA) was added to the cells, and after 2 h of incubation, fluorescence was measured using a microplate reader (BioTek Instruments Inc., Winooski, VT, USA). […] The therapeutic index was calculated from the ratio between IC50 and the MIC.

[1] = test system: A375 cancer cells (melanoma); experiment: Crystal violet cytotoxicity test in A375 cells without light activation; format: cell-based, human
Experimental: The inhibitory concentration of charged pi-conjugated compounds needed to inhibit the cell growth by 50% (toxicity IC50).
Most of the charged pi-conjugated compounds are aminocyanines which are functionalized with alkyl amine group. The charged pi-conjugated compounds were added to cell cultures of A375 cancer cells (human melanoma) and their cytotoxicity was quantified by the crystal violet test and/or clonogenic assays for cell viability. […] The longer the exposure the most cytotoxic the charged pi-conjugated compounds are towards A375 cells. […] The same behavior is observed: the longer the exposure, the more cytotoxic. All molecules presented here are aminocyanines except GL-261-2 which is a carboxyl-cyanine. […] This was the first time a therapeutic window of concentration that can be tuned to selectively kill cancer and/or protect cells was suspected. In finding this therapeutic window concentration and time of exposure are important variables that should be fine tuned.
Based on the finding described above, a larger set of charged pi-conjugated compounds was evaluated for cytotoxicity against A375 cancer cells as shown in FIG. 25 and FIG. 26.
The IC50 is the concentration needed to inhibit the cell viability by 50%. These molecules in FIG. 25 and FIG. 26 were evaluated by crystal violet assay and using 2 days of exposure.

A375 tumors = experiment: Intratumoral injection into A375 tumors in mice; format: in vivo
Experimental: Cy7.5-amine was intratumorally injected at the dose of 8 μg (equivalent to 50 μL of 200 μM Cy7.5-amine solution in PBS containing 2.5% DMSO. As control 50 μL of 2.5% DMSO in PBS solution was injected intratumorally. The blue dots indicate the days when the tumors were treated.
Then we applied Cy7.5-amine (FIG. 22C) by intratumoral injection into A375 tumors as described in FIG. 33.

S. aureus ATCC 25923 = experiment: Single-step isolation of spontaneous resistant mutants; format: cell-based, Staphylococcus aureus
Description: FIGS. 10A-10C show the development of resistance and mutation rate of bacterial strains subjected to repeated exposure to charged pi-conjugated compounds. (FIG. 10A) Stepwise development of resistance in B. cereus CECT131123, E. faecalis ATCC 29212, S. aureus ATCC 25923, and S. pneumoniae ATCC 49619. Bacterial strains were repeatedly exposed to charged pi-conjugated compounds or the conventional antibiotics ciprofloxacin (CIP), linezolid (LNZ) and vancomycin (VAN) for over 30 cycles. The y-axis indicates the MIC fold change, reflecting increased resistance over repeated treatment. (FIG. 10B) Mutation rate, represented as the frequency of rifampin-resistant cells, in S. aureus ATCC 25923 subjected to repeated cycles of treatment with charged pi-conjugated compounds or the conventional antibiotic ciprofloxacin (CIP). (FIG. 10C) Single-step resistance assessment of spontaneous mutants. […]
To estimate the occurrence of spontaneous charged pi-conjugated compound-resistant mutants, S. aureus cells cultured overnight were resuspended in PBS to yield 10^10 cells mL^−1 and then plated on both selective (charged pi-conjugated compound-containing) and non-selective LB agar plates. After incubation at 37° C. for 24-48 hours, colonies were counted, and the frequency of charged pi-conjugated compound-resistant mutants was calculated. […]

Which therapeutic index (MRSA USA300) does the source give for `C[N+]1=C(/C=C/C2=CC(=C/C=C3/N(CCCCCC(=O)NCCCCCCN)c4ccc5ccccc5c4C3(C)C)/CCC2)C(C)(C)c2c1ccc1ccccc21.Cl.[Cl-]` [Cy7.5-amine, Cyanine 7.5-amine] here?
The therapeutic index was 1.3.

And the IC50 [1]?
Its IC50 is 500 nM.

What about the “cytotoxicity at short exposure” value [1] of the same molecule?
The value was “safe and showed low cytotoxicity”.

What about the “mice free of cancer” value (A375 tumors; after 7 months of the study) of the same molecule?
The value was 2 out of 10.

What about the “loss of A375 tumors” value (A375 tumors; intratumoral 8 μg (50 μL of 200 μM), n=10 mice) of the same molecule?
Its value is 20%.

What about the “toxicity to the mice (body weight relative to control)” value (A375 tumors; intratumoral 200 μM, control 2.5% DMSO) of the same molecule?
Its value is “no sign of toxicity; also recorded: does not cause change of the mice body weight”.

What about the “MIC of spontaneous resistant mutants” value (S. aureus ATCC 25923; mutants propagated on fresh plates, compared with WT strain) of the same molecule?
Its value is “MIC indistinguishable from that of the WT”.

What about the spontaneous mutation rate (S. aureus ATCC 25923; plates containing 4×, 8×, 16×MIC, resistant CFU / total CFU) of the same molecule?
The spontaneous mutation rate was ≤ 10^−6.
